Format in all cases: cell-based
The subject of assay [1] is PC12^TrkA cells. In words: Survival of PC12^TrkA cells in serum-free medium (MTT, DAPI). The settings on record: peptides 10 μM, PDNF 500 ng/ml, NGF 30 ng/ml; 48 hours to 5 days. As for the experimental part:
(§1) PC12^nnr5 and PC12^TrkA cells were grown in RPMI with 10% FCS and 5% horse serum as described earlier (Green et al., J. Cell Biol. 102:830-843 (1986); Chuenkova and Pereira, Mol. Biol. Cell 11: 1487-1498 (2000)). Two approaches were used to study neurite extension: 1) Plating cells (1×10^5 cells/ml) on plastic wells (LABTECH 16-well slides, Nalge Nunc International, Naperville, Ill.) coated with synthetic peptides (100 μg/ml water, 4° C., overnight) or rat tail collagen (1 mg/ml PBS, 4° C., overnight). 2) Adding peptides in solution to cells plated on uncoated substratum. Cells were grown in 1% FCS-containing RPMI for 72 hours, and reacted with 0.5 mg/ml MTT (3-[4,5-dimethylthiazol-2-yl]-2,5-diphenyltetrazolium bromide) (SIGMA, St. Louis, Mo.) in serum-free medium for 1 hour at 37° C. Light microscopy was used to visualize viable cells (i.e., containing reduced insoluble formazan) with or without extended neurites (>5 μm in length). Cell viability was also determined using the CELLTITER 96 assay (Promega, Madison, Wis.) as follows: Cells, plated at 2×10^5/ml, were treated with peptides in serum-free medium for different times and exposed to CELLTITER 96 Aqueous One Solution for 1 hour at 37° C. 2) Apoptotic cells were identified by staining with DAPI (250 ng/ml) (SIGMA) 48 hours after cells were exposed to serum-free medium with or without additives in solution, as described earlier (Chuenkova and Pereira, Mol. Biol. Cell 11:1487-1498 (2000)). […]

A further assay concerns Erk1/2. Kind of assay: Erk1/2 phosphorylation in PC12 cells. The note with it: 5 minutes; control peptides 10 μM. The method, then: Activation state of TrkA, Erk1/2 and Akt kinases and transcription factor CREB was analyzed by assessing phosphorylation by Western blot with appropriate phospho-specific antibodies. For this, cells were plated in complete medium at a density of 3×10^5 cells/ml overnight on 6-well plates (BECTON DICKINSON LABWARE, Franklin Lakes, N.J.). The medium was changed to serum-free medium and the cells cultured for an additional 24 hours to reduce background phosphorylation. […] Antibody reaction was visualized by horseradish peroxidase (HRP)-conjugated secondary antibody and enhanced chemiluminescence kit (ECL). Some blots were stripped in appropriate buffer (50 mM Tris HCl, pH 7.8, 2% SDS, 1% β-mercaptoethanol) at 50° C. for 60 minutes and re-probed with p42/44MAPK, Akt or CREB antibody to ensure equal loading of proteins. For immunoprecipitation experiments, cell lysates were pre-adsorbed on protein G-Sepharose for 1 hour at 4° C. and after brief centrifugation supernatants were incubated with anti-TrkA antibody for 24 hours at 4° C. with gentle rocking. Formed immunocomplexes were captured on protein G-Sepharose, eluted with SDS-PAGE sample buffer and analyzed by immunoblotting with antibody against phospho-TrkA receptor.

The subject of assay [2] is PC12 cells or Schwann cells. In words: Inhibition of apoptosis of PC12 cells or Schwann cells by synthetic peptides.
The next assay concerns PC12 cells. The settings on record: serum-free RPMI/0.2% BSA, collagen coated dishes, 16-17 hours.
Assay [3] has as its system PC12^TrkA cells. In words: Neurite extension of PC12^TrkA cells. The settings on record: coated substratum or in medium (10 μM), 1% FCS. The method, then: as §1, with “C.” for “C. 2) Apoptotic cells were identified by staining with DAPI (250 ng/ml) (SIGMA) 48 hours after cells were exposed to serum-free medium with or without additives in solution, as described earlier (Chuenkova and Pereira, Mol. Biol. Cell 11:1487-1498 (2000)).”

In another assay the test system is neuroblastoma N18 cells. Kind of assay: Neurite outgrowth assay in N18 cells. The settings on record: soluble or immobilized on plastic (500 μg/ml coating), 17 hours. As for the experimental part: 96-well microtiter plates were coated overnight at 4° C. with the TS or peptides or fragments thereof, or with control proteins laminin (Ln) or bovine serum albumin (BSA) at 500 μg/ml. After removing the compounds, the plates were further incubated with 1% BSA for 1 hour at room temperature and immediately used as substratum for PC12 or N18 (Prasad, K., Biol. Rev. Camb. Philos. Soc., 66:431-451 (1991)) cells in serum-free RPMI/0.2% BSA. Neurite outgrowth was measured using a phase-contrast microscope 17 hours later.

“Also recorded” adds a separate entry of the source.

Turning to DSSAHGTPSTPA [peptide TR], in the assay on PC12^TrkA cells [1], the “survival of PC12^TrkA cells in serum-free medium” value was “inactive; also recorded: did not significantly promoted cell survival; also recorded: did not support survival and neurite extension”. Moreover, the “Erk1/2 phosphorylation in PC12 cells” value with Erk1/2 is “did not activate Erk”. The “suppression of apoptosis of PC12 cells or Schwann cells” value in assay [2] is “did not inhibit apoptosis”. Moreover, the “neurite outgrowth in PC12 cells” value with PC12 cells is recorded as “did not induce neurite outgrowth; also recorded: did not promote neurite outgrowth”. In addition, the “neurite extension / differentiation of PC12^TrkA cells” value in the assay on PC12^TrkA cells [3] is “did not spread and extend neurites; also recorded: did not support survival and neurite extension”.

Regarding laminin [reference compound], the “neurite outgrowth in N18 cells” value in the assay on neuroblastoma N18 cells is reported as “induced”.

The values above are taken from patent US20090117593A1, “T. Cruzi-derived neurotrophic agents and methods of use therefor” (Tufts University, priority 2006, published 2009).
